In patent US8637499B2, “Benzoxazepines as inhibitors of PI3K/mTOR and methods of their use and manufacture” (Exelixis, Inc., priority 2009, dated 2014):

How the values were obtained:
PI3Kα = PI3Kα (Homo sapiens, UniProt P42336); assay: PI3K Biochemical Assays (ATP consumption, luciferase-luciferin chemiluminescence); details: PI3Kα 1.5 nM, ATP 1 μM, PIP2 10 μM; percent of ATP consumed
How it was run: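 Enzyme (1.5 nM), PIP2 substrate (10 μM) and ATP (1 μM) react about 2 h at room temperature in Tris buffer pH 7.5 with MgCl2, EGTA, DTT and CHAPS. Remaining ATP detected by Kinase-Glo luminescence; total consumption limited to 40-60%.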

mTORC1 (mTOR/GbL/Raptor) = mTORC1 (mTOR/GbL/Raptor) (Homo sapiens, UniProt P42345); assay: mTOR/GbL/Raptor (mTORC1) ELISA Assay; format: biochemical; details: 0.2 nM mTORC1, 10 μM ATP, 50 nM NHis-tagged 4E-BP1; phosphorylation of 4E-BP1; read-out: IC50
How it was run: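 Detection used Ni-chelate capture of His-tagged 4E-BP1, then anti-phospho-4E-BP1 and HRP anti-IgG with luminescent ELISA substrate. Reactions ran 120 min at ambient temperature with 0.2 nM mTORC1, 10 μM ATP, 50 nM 4E-BP1, 10 mM MnCl2, pH 7.2 Hepes.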

Chain of PI3Kα (P42336 whole entry): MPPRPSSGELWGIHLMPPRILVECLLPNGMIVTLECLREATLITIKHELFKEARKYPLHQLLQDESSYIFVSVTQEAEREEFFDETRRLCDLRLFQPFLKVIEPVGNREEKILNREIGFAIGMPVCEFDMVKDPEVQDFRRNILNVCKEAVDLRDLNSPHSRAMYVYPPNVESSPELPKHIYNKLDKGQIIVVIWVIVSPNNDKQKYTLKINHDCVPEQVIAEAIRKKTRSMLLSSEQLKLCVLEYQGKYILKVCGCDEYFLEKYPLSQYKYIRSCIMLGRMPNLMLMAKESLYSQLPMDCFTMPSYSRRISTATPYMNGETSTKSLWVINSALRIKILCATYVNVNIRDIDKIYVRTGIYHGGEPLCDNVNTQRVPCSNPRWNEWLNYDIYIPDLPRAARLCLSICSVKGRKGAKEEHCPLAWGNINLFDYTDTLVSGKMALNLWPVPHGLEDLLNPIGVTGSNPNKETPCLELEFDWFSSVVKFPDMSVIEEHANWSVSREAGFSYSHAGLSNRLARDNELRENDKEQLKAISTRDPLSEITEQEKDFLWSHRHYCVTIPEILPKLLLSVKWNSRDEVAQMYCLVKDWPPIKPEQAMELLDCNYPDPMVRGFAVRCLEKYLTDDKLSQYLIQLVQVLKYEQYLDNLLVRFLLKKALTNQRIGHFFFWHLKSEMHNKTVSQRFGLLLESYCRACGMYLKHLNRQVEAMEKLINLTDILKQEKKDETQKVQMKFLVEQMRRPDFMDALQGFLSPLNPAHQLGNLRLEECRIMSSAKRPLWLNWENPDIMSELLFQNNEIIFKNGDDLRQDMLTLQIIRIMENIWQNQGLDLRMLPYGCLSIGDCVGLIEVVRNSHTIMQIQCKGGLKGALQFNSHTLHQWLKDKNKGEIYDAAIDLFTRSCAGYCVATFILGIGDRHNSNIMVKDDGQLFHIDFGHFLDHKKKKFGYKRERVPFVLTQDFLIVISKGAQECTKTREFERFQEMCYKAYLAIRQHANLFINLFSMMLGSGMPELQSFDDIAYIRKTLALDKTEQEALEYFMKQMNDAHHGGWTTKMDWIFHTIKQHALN
Chain of PI3Kα (P27986 whole entry partner): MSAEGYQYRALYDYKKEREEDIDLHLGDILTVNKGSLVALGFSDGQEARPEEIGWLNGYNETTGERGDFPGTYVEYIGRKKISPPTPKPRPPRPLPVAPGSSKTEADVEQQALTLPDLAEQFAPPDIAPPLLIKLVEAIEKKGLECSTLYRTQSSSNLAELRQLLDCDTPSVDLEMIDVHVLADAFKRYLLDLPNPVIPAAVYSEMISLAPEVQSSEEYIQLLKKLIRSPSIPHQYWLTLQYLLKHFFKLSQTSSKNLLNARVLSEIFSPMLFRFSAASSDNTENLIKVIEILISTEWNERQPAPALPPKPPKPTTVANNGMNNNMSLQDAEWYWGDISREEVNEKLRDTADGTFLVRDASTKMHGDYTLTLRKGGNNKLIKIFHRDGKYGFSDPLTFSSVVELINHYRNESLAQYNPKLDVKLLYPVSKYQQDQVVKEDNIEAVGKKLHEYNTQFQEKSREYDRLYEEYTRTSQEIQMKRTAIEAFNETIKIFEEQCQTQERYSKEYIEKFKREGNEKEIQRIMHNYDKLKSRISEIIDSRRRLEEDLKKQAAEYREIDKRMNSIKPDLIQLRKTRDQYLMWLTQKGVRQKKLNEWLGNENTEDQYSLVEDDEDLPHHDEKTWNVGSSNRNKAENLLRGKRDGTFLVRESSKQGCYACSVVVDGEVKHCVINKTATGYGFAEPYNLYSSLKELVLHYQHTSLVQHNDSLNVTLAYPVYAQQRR

| IC50 (PI3Kα) [nM] | IC50 (mTORC1 (mTOR/GbL/Raptor)) [nM] | SMILES |
| --- | --- | --- |
| 500 to 1000 | 50 to 250 | COC1CCN(C(=O)N2CCOc3ccc(-c4ccc5nc(C)[nH]c5c4)cc3C2)CC1 [Compound 105, 7-(2-methyl-1H-benzimidazol-6-yl)-4-{[4-(methyloxy)piperidin-1-yl]carbonyl}-2,3,4,5-tetrahydro-1,4-benzoxazepine] |
| ≤ 75 | ≤ 50 | Cc1nc2ccc(-c3ccc4c(c3)CN(C(=O)N3CCCC[C@@H]3c3ccccc3)CCO4)cc2[nH]1 [Compound 66, 7-(2-methyl-1H-benzimidazol-6-yl)-4-{[(2R)-2-phenylpiperidin-l-yl]carbonyl}-2,3,4,5-tetrahydro-1,4-benzoxazepine] |
